Target: T1, dopamine D3 receptor (Homo sapiens, UniProt P35462)
T1 construct: expressed in transfected cells; host or cells: CHO cells (crude cell membranes)
Assay: Binding experiments on cloned dopamine receptors: displacement of [125I]-Iodosulpride
Details: cloned human D3 receptor expressed in CHO cells, [125I]-Iodosulpride displacement; pKi accurate to about ±0.2-0.3
Experimental: Binding Experiments on Cloned Dopamine (e.g. D2, D3 and D4) Receptors
Cultures were grown as monolayers or in suspension in standard cell culture media. Cells were recovered by scraping (from monolayers) or by centrifugation (from suspension cultures), and were washed two or three times by suspension in phosphate buffered saline followed by collection by centrifugation. Cell pellets were stored frozen at −80° C. Crude cell membranes were prepared by homogenisation followed by high-speed centrifugation, and characterisation of cloned receptors achieved by radioligand binding.
Preparation of Cho Cell Membranes: Cell Pellets were Gently Thawed at Room temperature, and resuspended in about 20 volumes of ice-cold Extraction buffer; 5 mM EDTA, 50 mM Trizma pre-set crystals (pH7.4@37° C.), 1 mM MgCl2, 5 mM KCl and 120 mM NaCl. The suspension was homogenised using an Ultra-Turrax at full speed for 15 seconds. The homogenate was centrifuged at 18,000 r.p.m for 15 min at 4° C. in a Sorvall RC5C centrifuge. Supernatant was discarded, and homogenate re-suspended in extraction buffer then centrifugation was repeated. The final pellet was resuspended in 50 mM Trizma pre-set crystals (pH 7.4 @ 37° C.) and stored in 1 ml aliquot tubes at −80° C. (D2=3.0E+08 cells, D3=7.0E+07 cells and D4=1.0E+08 cells).
The total volume is 0.2 ml and incubated in a water bath at 37° C. for 40 minutes. Following incubation, samples were filtered onto GF/B Unifilters using a Can berra Packard Filtermate, and washed four times with ice-cold 50 mM Trizma pre-set crystals (pH 7.4 @ 37° C.). The radioactivity on the filters was measured using a Canberra Packard Topcount Scintillation counter. […] For competition curves, 10 serial log concentrations of competing cold drug were used (Dilution range: 10 μM-10 pM). Competition curves were analysed using Inflexion, an iterative curve fitting programme in Excel. Results were expressed as pKi values where pKi=−log 10 [Ki].

T1 sequence (P35462 whole entry): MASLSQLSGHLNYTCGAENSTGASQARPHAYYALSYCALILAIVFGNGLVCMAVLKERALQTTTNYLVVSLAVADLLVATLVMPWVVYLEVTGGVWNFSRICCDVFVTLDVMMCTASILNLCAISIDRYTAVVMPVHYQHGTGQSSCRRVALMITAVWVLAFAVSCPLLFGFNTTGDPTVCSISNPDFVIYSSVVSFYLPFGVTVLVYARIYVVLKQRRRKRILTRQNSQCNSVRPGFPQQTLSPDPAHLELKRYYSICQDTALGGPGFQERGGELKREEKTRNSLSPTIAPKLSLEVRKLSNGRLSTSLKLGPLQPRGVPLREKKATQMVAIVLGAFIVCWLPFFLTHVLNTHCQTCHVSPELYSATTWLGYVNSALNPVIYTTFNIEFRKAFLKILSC

Ki, 0.316 to 10 nM:
Cn1c(SCCCN2CCc3ccc(OS(C)(=O)=O)cc3CC2)nnc1-c1ccccc1 [Example 1, 3-{3-[(4-methyl-5-phenyl-4H-1,2,4-triazol-3-yl)thio]propyl}-2,3,4,5-tetrahydro-1H-3-benzazepin-7-yl methanesulfonate]
CS(=O)(=O)c1ccc2c(c1)CCN(CCCSc1nc(-c3ccccc3)c(-c3ccccc3)[nH]1)CC2 [Example 5, 3-{3-[(4,5-diphenyl-1H-imidazol-2-yl)thio]propyl}-7-(methylsulfonyl)-2,3,4,5-tetrahydro-1H-3-benzazepine]
Cn1c(SCCCN2CCc3ccc(OS(C)(=O)=O)cc3CC2)nnc1-c1cccs1 [Example 8, 3-(3-{[4-methyl-5-(2-thienyl)-4H-1,2,4-triazol-3-yl]thio}propyl)-2,3,4,5-tetrahydro-1H-3-benzazepin-7-yl methanesulfonate]
Cn1c(SCCCN2CCc3ccc(OS(C)(=O)=O)cc3CC2)nnc1-c1ccc2ncccc2c1 [Example 13, 3-(3-{[4-methyl-5-(6-quinolinyl)-4H-1,2,4-triazol-3-yl]thio}propyl)-2,3,4,5-tetrahydro-1H-3-benzazepin-7-yl methanesulfonate]
Cn1c(SCCCN2CCc3ccc(OS(C)(=O)=O)cc3CC2)nnc1-c1ccc(F)cc1 [Example 14, 3-(3-{[5-(4-fluorophenyl)-4-methyl-4H-1,2,4-triazol-3-yl]thio}propyl)-2,3,4,5-tetrahydro-1H-3-benzazepin-7-yl methanesulfonate]
CS(=O)(=O)Oc1ccc2c(c1)CCN(CCCSc1nc(-c3ccccc3)c(-c3ccccc3)[nH]1)CC2 [Example 22, 3-{3-[(4,5-diphenyl-1H-imidazol-2-yl)thio]propyl}-2,3,4,5-tetrahydro-1H-3-benzazepin-7-yl methanesulfonate]
Cn1c(SCCCN2CCc3ccc(S(=O)(=O)N4CCOCC4)cc3CC2)nnc1-c1ccc2ncccc2c1 [Example 51, 3-(3-{[4-methyl-5-(6-quinolinyl)-4H-1,2,4-triazol-3-yl]thio}propyl)-7-(4-morpholinylsulfonyl)-2,3,4,5-tetrahydro-1H-3-benzazepine]
Cc1cnc(-c2ccc3c(c2)CCN(CCCSc2nnc(-c4ccc5ncccc5c4)n2C)CC3)o1 [Example 61, 7-(5-methyl-1,3-oxazol-2-yl)-3-(3-{[4-methyl-5-(6-quinolinyl)-4H-1,2,4-triazol-3-yl]thio}propyl)-2,3,4,5-tetrahydro-1H-3-benzazepine]
Cc1cc(-c2ccc3c(c2)CCN(CCCSc2nnc(-c4ccc5ncccc5c4)n2C)CC3)no1 [Example 63, 7-(5-methyl-3-isoxazolyl)-3-(3-{[4-methyl-5-(6-quinolinyl)-4H-1,2,4-triazol-3-yl]thio}propyl)-2,3,4,5-tetrahydro-1H-3-benzazepine]
Cn1c(SCCCN2CCc3ccc(S(=O)(=O)c4ccccc4)cc3CC2)nnc1-c1ccc(F)cc1F [Example 67, 3-(3-{[5-(2,4-difluorophenyl)-4-methyl-4H-1,2,4-triazol-3-yl]thio}propyl)-7-(phenylsulfonyl)-2,3,4,5-tetrahydro-1H-3-benzazepine]
Cn1c(SCCCN2CCc3ccc(S(=O)(=O)N4CCOCC4)cc3CC2)nnc1-c1ccc(F)cc1F [Example 70, 3-(3-{[5-(2,4-difluorophenyl)-4-methyl-4H-1,2,4-triazol-3-yl]thio}propyl)-7-(4-morpholinylsulfonyl)-2,3,4,5-tetrahydro-1H-3-benzazepine]
Cn1c(SCCCN2CCc3ccc(S(C)(=O)=O)cc3CC2)nnc1-c1cc2ccccc2[nH]1 [Example 72, 3-(3-{[5-(1H-indol-2-yl)-4-methyl-4H-1,2,4-triazol-3-yl]thio}propyl)-7-(methylsulfonyl)-2,3,4,5-tetrahydro-1H-3-benzazepine]
Cn1c(SCCCN2CCc3ccc(S(C)(=O)=O)cc3CC2)nnc1-c1ccc2c(ccn2C)c1 [Example 74, 3-(3-{[4-methyl-5-(1-methyl-1H-indol-5-yl)-4H-1,2,4-triazol-3-yl]thio}propyl)-7-(methylsulfonyl)-2,3,4,5-tetrahydro-1H-3-benzazepine]
CCS(=O)(=O)c1ccc2c(c1)CCN(CCCSc1nnc(-c3cc4ccccc4s3)n1C)CC2 [Example 91, 3-(3-{[5-(1-benzothien-2-yl)-4-methyl-4H-1,2,4-triazol-3-yl]thio}propyl)-7-(ethylsulfonyl)-2,3,4,5-tetrahydro-1H-3-benzazepine]
CCS(=O)(=O)c1ccc2c(c1)CCN(CCCSc1nnc(-c3cc4ccccc4[nH]3)n1C)CC2 [Example 93, 7-(ethylsulfonyl)-3-(3-{[5-(1H-indol-2-yl)-4-methyl-4H-1,2,4-triazol-3-yl]thio}propyl)-2,3,4,5-tetrahydro-1H-3-benzazepine]
CCS(=O)(=O)c1ccc2c(c1)CCN(CCCSc1nnc(-c3cc4ccccc4o3)n1C)CC2 [Example 95, 3-(3-{[5-(1-benzofuran-2-yl)-4-methyl-4H-1,2,4-triazol-3-yl]thio}propyl)-7-(ethylsulfonyl)-2,3,4,5-tetrahydro-1H-3-benzazepine]
CCS(=O)(=O)c1ccc2c(c1)CCN(CCCSc1nnc(-c3cccc4occc34)n1C)CC2 [Example 96, 3-(3-{[5-(1-benzofuran-4-yl)-4-methyl-4H-1,2,4-triazol-3-yl]thio}propyl)-7-(ethylsulfonyl)-2,3,4,5-tetrahydro-1H-3-benzazepine]
CCS(=O)(=O)c1ccc2c(c1)CCN(CCCSc1nnc(-c3cc4ccccc4n3C)n1C)CC2 [Example 99, 7-(ethylsulfonyl)-3-(3-{[4-methyl-5-(1-methyl-1H-indol-2-yl)-4H-1,2,4-triazol-3-yl]thio}propyl)-2,3,4,5-tetrahydro-1H-3-benzazepine]
CCS(=O)(=O)c1ccc2c(c1)CCN(CCCSc1nnc(-c3cccc4ccoc34)n1C)CC2 [Example 100, 3-(3-{[5-(1-benzofuran-7-yl)-4-methyl-4H-1,2,4-triazol-3-yl]thio}propyl)-7-(ethylsulfonyl)-2,3,4,5-tetrahydro-1H-3-benzazepine]
Cc1cc(-c2ccc3c(c2)CCN(CCCSc2nnc(-c4ccc5ncccc5c4)n2C)CC3)on1 [Example 126, 7-(3-methyl-5-isoxazolyl)-3-(3-{[4-methyl-5-(6-quinolinyl)-4H-1,2,4-triazol-3-yl]thio}propyl)-2,3,4,5-tetrahydro-1H-3-benzazepine]
Cc1cc(-c2ccc3c(c2)CCN(CCCSc2nnc(-c4ccc(F)cc4F)n2C)CC3)no1 [Example 131, 3-(3-{[5-(2,4-difluorophenyl)-4-methyl-4H-1,2,4-triazol-3-yl]thio}propyl)-7-(5-methyl-3-isoxazolyl)-2,3,4,5-tetrahydro-1H-3-benzazepine]
Cc1cc(-c2ccc3c(c2)CCN(CCCSc2nnc(-c4ccc(F)c5ncccc45)n2C)CC3)no1 [Example 135, 3-(3-{[5-(8-fluoro-5-quinolinyl)-4-methyl-4H-1,2,4-triazol-3-yl]thio}propyl)-7-(5-methyl-3-isoxazolyl)-2,3,4,5-tetrahydro-1H-3-benzazepine]
Cc1ccc2c(-c3nnc(SCCCN4CCc5ccc(-c6cc(C)on6)cc5CC4)n3C)ccc(F)c2n1 [Example 137, 3-(3-{[5-(8-fluoro-2-methyl-5-quinolinyl)-4-methyl-4H-1,2,4-triazol-3-yl]thio}propyl)-7-(5-methyl-3-isoxazolyl)-2,3,4,5-tetrahydro-1H-3-benzazepine]
Cc1cc(-c2ccc3c(c2)CCN(CCCSc2nnc(-c4ccc5cnccc5n4)n2C)CC3)no1 [Example 146, 7-(5-methyl-3-isoxazolyl)-3-(3-{[4-methyl-5-(1,6-naphthyridin-2-yl)-4H-1,2,4-triazol-3-yl]thio}propyl)-2,3,4,5-tetrahydro-1H-3-benzazepine]
Cc1ccc2cc(-c3nnc(SCCCN4CCc5ccc(-c6ncc(C)o6)cc5CC4)n3C)ccc2n1 [Example 168, 3-(3-{[4-methyl-5-(2-methyl-6-quinolinyl)-4H-1,2,4-triazol-3-yl]thio}propyl)-7-(5-methyl-1,3-oxazol-2-yl)-2,3,4,5-tetrahydro-1H-3-benzazepine]
CCn1c(SCCCN2CCc3ccc(-c4ncc(C)o4)cc3CC2)nnc1-c1ccc2ncccc2c1 [Example 169, 3-(3-{[4-ethyl-5-(6-quinolinyl)-4H-1,2,4-triazol-3-yl]thio}propyl)-7-(5-methyl-1,3-oxazol-2-yl)-2,3,4,5-tetrahydro-1H-3-benzazepine]

From US7429579B2, “Tetrahydrobenzazepine derivatives useful as modulators of dopamine D3 receptors (antipsychotic agents)” (SmithKline Beecham, PLC, priority 2000, dated 2008)
